These are literature values, as cited in publication PMC9063988 (JACS Au, 2022).

SMILES strings stand for the structures.

In this data set the test system is uptake of ETP transporter 21 into HeLa Kyoto cells.

For the molecule `O[C@H](CS)[C@@H](O)CS` [DTE, 1,4-Dithioerythritol], the “inhibition of thiol-mediated uptake” value was “fail to inhibit”.
